{
  "source": "patent US12478603B2",
  "about": "“Serum metabolites as biomarkers for carnitine treatment of sepsis” (priority 2020, dated 2025)",
  "key": {"[1]": {"tested_on": "patients with septic shock", "assay": "Pharmacometabolomic analysis of the RACE trial: mortality after L-carnitine stratified by pre-treatment serum acetylcarnitine", "format": "in vivo, human", "settings": "for 90-day mortality: high (≥36 μM) pretreatment acetylcarnitine, placebo 100%; for hazard ratio (Mantel-Haenszel) / Kaplan-Meier curve, mortality benefit: 18 g vs placebo", "description": "Patient selection: Detailed inclusion and exclusion criteria have been previously reported (see, e.g., Jones (2018) “Effect of Levocarnitine vs Placebo as an Adjunctive Treatment for Septic Shock: The Rapid Administration of Carnitine in Sepsis (RACE) Randomized Clinical Trial” JAMA Netw Open 1: e186076, incorporated herein by reference). Briefly, patients presenting with suspected or confirmed infection and meeting consensus criteria for septic shock including administration of continuous vasopressors despite adequate fluid resuscitation, an elevated lactate>2 mmol/L, and a SOFA score of at least 5 were eligible for inclusion. All patients enrolled in the clinical trial were included in the present analysis with the exception of two patients who withdrew consent following randomization and 12 that lacked a T0 sample (FIG. 6).\nBlood sampling. Following consent but prior to initiation of therapy, whole blood was drawn into serum separator tubes (SST; Vacutainer, Becton Dickinson, Franklin Lakes, NJ) and was allowed to clot for at least 30 minutes at room temperature. A portion of whole blood was aliquoted, while the remainder was centrifuged to yield serum. All samples were then frozen at −80° C. within 60 minutes of the initial sample acquisition. This approach has been previously utilized to yield samples appropriate for metabolomics analyses (see, e.g., Puskarich (2015) “Pharmacometabolomics of L-carnitine treatment response phenotypes in patients with septic shock” Ann Am Thorac Soc 12: 46-56, incorporated herein by reference). At the completion of the clinical trial, serum samples were shipped on dry ice to the University of Michigan for assay.\nMeasurement of Acylcarnitines: Analysis was performed consistent with prior methods (see, e.g., Puskarich (2018) “Septic Shock Nonsurvivors Have Persistently Elevated Acylcarnitines Following Carnitine Supplementation” Shock 49: 412-419, incorporated herein by reference). Briefly, at the time of analysis, serum samples were thawed on ice and extraction solvent was prepared consisting of a 1:1:1 mixture of methanol:acetonitrile:acetone plus a 1:200 dilution of a stock mixture of stable-isotope labeled acylcarnitine standards dissolved according to manufacturer instructions (NSK-B, Cambridge Isotope Laboratories). Acylcarnitine species were then analyzed without derivatization by RPLC-MS/MS using an Agilent 1200 LC coupled to an Agilent 6410 tandem quadrupole (Santa Clara, CA). A pooled sample generated by combining a small volume of all study samples was injected every 10th run and was used for intra-batch and inter-batch drift correction as described below. Absolute quantitation by isotope dilution mass spectrometry was performed for acylcarnitine species with exact-matching stable isotope internal standards (L-carnitine, C2, C3, C4, C5, C8, C14, C16) by multiplying the ratio of the unlabeled peak area/labeled peak area by the known concentration of acylcarnitine in the extraction solvent, then adjusting for dilution of the original serum sample. Other acylcarnitine species were limited to relative quantification by peak area.\nBy 90 days, 90% of the deaths occurred and the interaction term between L-carnitine treatment and mortality flattened (FIG. 7). Based on this analysis, 90-day mortality was chosen as the primary clinical outcome.\nStatistical analysis: For logistic regression modeling, treatment assignment was scaled from 0 (placebo) to 1 (18 g L-carnitine) and age and SOFA score were z-scale normalized. Two main models were developed for each metabolite. The base model was described by log it(p)=B0+BD*Dose+BM*Metabolitei, where p is the probability of mortality in 90 days. The treatment interaction was modeled with: log it(p)=B0+(BD*Dose)+(BM*Metabolitei)+(BMD*Metabolitei)*Dose […]"}, "[2]": {"tested_on": "patients with septic shock", "settings": "cited from earlier work; for absolute mortality reduction at 28 days compared to saline placebo: 18 g dose, non-significant"}},
  "note": "“Also recorded” adds a separate entry of the source. Like-named read-outs stand apart in the source and are kept apart here.",
  "data": [
    {"smiles": "C[N+](C)(C)C[C@H](O)CC(=O)[O-]", "note": "[L-carnitine]", "values": [
      {"measurement": "predicted probability of 90-day mortality (interaction logistic regression model)", "setting": "[1]; as baseline acetylcarnitine concentration increases, dose 0, 6, 12, 18 g", "value": "declines with increasing L-carnitine dose"},
      {"measurement": "90-day mortality", "setting": "[1]; L-carnitine 18 g, p=0.002", "value": 50, "unit": "%"},
      {"measurement": "90-day mortality", "setting": "[1]; L-carnitine any dose, p=0.02", "value": 69, "unit": "%"},
      {"measurement": "proportion of 90-day non-survivors by dose received", "setting": "[1]; low baseline acetylcarnitine tertile (normalized [−2.21, −0.508], n=79), placebo, 6, 12, 18 g, Fisher's exact test p=0.81", "value": "not associated with dose received; also recorded: not different between placebo or L-carnitine doses"},
      {"measurement": "treatment benefit (90-day mortality)", "setting": "[1]; patients with acetylcarnitine less than 36 μM", "value": "no treatment benefit"},
      {"measurement": "treatment / mortality benefit", "setting": "[1]; patients with acetylcarnitine ≥26 μM, L-carnitine 18 g, additional analysis (trend)", "value": "received a treatment benefit; also recorded: derived a mortality benefit"},
      {"measurement": "hazard ratio (Mantel-Haenszel)", "setting": "[1]; scenario 1: no acetylcarnitine threshold", "value": "not significant"},
      {"measurement": "Kaplan-Meier curve, mortality benefit", "setting": "[1]; scenario 1: no acetylcarnitine threshold, n=170, p=0.28", "value": "no mortality benefit"},
      {"measurement": "hazard ratio (Mantel-Haenszel)", "setting": "[1]; scenario 2: acetylcarnitine (C2) threshold ≥26 μM", "value": "improved but is not significant"},
      {"measurement": "Kaplan-Meier curve, mortality benefit", "setting": "[1]; scenario 2: acetylcarnitine (C2) threshold ≥26 μM, 52 patients, p=0.14", "value": "no mortality benefit"},
      {"measurement": "hazard ratio (Mantel-Haenszel)", "setting": "[1]; scenario 3: acetylcarnitine (C2) threshold ≥30 μM", "value": "significant and favors L-carnitine (18 g)"},
      {"measurement": "Kaplan-Meier curve, mortality benefit", "setting": "[1]; scenario 3: acetylcarnitine (C2) threshold ≥30 μM, 42 patients, p=0.01", "value": "mortality benefit"},
      {"measurement": "hazard ratio (Mantel-Haenszel)", "setting": "[1]; scenario 4: acetylcarnitine (C2) threshold ≥36 μM", "value": "significant"},
      {"measurement": "Kaplan-Meier curve, mortality benefit", "setting": "[1]; scenario 4: acetylcarnitine (C2) threshold ≥36 μM, 34 patients, p=0.004", "value": "mortality benefit"},
      {"measurement": "reduction in sequential organ failure assessment (SOFA) score at 48 hours", "setting": "[2]; 6, 12 or 18 g", "value": "none of the tested L-carnitine doses produced a significant reduction"},
      {"measurement": "absolute mortality reduction at 28 days compared to saline placebo", "setting": "[2]; intention to treat analysis", "value": 3, "unit": "%"},
      {"measurement": "absolute mortality reduction at 28 days compared to saline placebo", "setting": "[2]; per protocol analysis", "value": 6, "unit": "%"}
    ]}
  ]
}
